{"source": "paper PMC10945739", "about": "“Exploring Cassia mimosoïdes as a promising natural source of steroids with potent anti-cancer, urease inhibition, and antimicrobial properties” (RSC Advances, 2024)", "key": {"H.pylori": {"test_system": "H.pylori", "experiment": "Antibacterial activity, agar well diffusion method", "format": "cell-based, Helicobacter pylori", "conditions": "Table S2 and b89; unit not given", "description": "(§1) Antibacterial activity of the isolated and synthesized compounds was perform using agar well method. Three bacterial strains selected for this experiment were H.pylori, B. subtilis and S. aureus, for all of three strains compounds show good to mederate inhibition. […] The presence of H. pylori in the stomach has been associated with a range of gastric disorders, including peptic ulcers, gastritis, and an increased risk of gastric cancer. The bacterium's ability to manipulate the gastric environment through urease activity underscores its role in the development and progression of these conditions. Different studies have targeted H. pylori and its urease activity as potential avenues for therapeutic intervention and disease management (Fig. 4).\n(§2) The agar well diffusion method evaluated every compound separately. Each sterile Petri plate was aseptically filled with 20 mL of the agar medium, which was then […]. The media then solidified at room temperature. Various bacterial strains were put to agar plates using a sterile cotton swab. A 6 mm-diameter well was drilled using a sterilized cork borer. Each isolated compound was dissolved in 1 mL of a 20% DMSO solution. In a well with a diameter of 6 mm, […] of the standard drug and isolated compounds were added. […] The zone of inhibition was graphed and quantified in millimeters.[20]"}, "Jack bean urease": {"molecular_target": "Jack bean urease (Canavalia ensiformis, UniProt P07374)", "sequence (P07374 whole entry, looked up)": "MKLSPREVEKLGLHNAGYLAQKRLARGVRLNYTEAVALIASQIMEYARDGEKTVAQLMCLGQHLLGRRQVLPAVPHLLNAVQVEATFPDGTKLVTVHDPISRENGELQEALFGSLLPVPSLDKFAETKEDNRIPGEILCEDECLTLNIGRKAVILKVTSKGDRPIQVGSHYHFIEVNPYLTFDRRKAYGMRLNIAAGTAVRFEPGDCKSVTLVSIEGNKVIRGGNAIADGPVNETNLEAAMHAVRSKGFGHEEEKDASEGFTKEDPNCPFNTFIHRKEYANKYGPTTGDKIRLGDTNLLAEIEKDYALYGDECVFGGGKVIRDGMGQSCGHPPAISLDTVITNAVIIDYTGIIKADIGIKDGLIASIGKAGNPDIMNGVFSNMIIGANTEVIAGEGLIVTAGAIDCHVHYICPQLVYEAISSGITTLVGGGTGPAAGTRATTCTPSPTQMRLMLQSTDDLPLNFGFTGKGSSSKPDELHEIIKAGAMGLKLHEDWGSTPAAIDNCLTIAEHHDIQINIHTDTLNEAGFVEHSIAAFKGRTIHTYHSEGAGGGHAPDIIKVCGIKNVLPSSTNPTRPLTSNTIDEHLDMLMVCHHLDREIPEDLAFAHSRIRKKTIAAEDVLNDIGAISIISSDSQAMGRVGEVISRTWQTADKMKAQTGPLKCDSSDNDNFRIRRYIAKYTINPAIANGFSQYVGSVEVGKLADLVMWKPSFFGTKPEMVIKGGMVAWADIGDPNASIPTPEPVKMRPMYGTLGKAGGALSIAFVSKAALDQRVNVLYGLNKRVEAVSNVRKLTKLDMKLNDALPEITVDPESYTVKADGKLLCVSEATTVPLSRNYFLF", "experiment": "biochemical", "format": "biochemical", "method": "The inhibition potential of the isolated compounds against urease was investigated using a SpectraMax M2 reader using 96-well microplates.\nThe kinetic assay involved preparing varying concentrations of both the test compound and the substrate (urea), spanning 0 μM, 5 μM, 10 μM, 15 μM, and 20 μM. The resulting data was utilized to construct a Lineweaver–Burk plot.\nIn 96-well plates were incubated at 37 °C for 15 min, reaction mixtures consisting of 25 μL of test compounds (each 0.5 mM), 25 μL of enzyme solution (Jack bean urease) and 55 μL of buffers containing 20.79 mM urea. The indophenol method described by Weatherburn[21] was used to determine urease inhibitor activity by measuring ammonia production. Briefly, to each well were added 70 μL of alkaline reagent (0.5% w/v NaOH and 0.1% active chloride, NaOCl) and 45 μL of phenolic reagent (1% w/v phenol and 0.005% w/v sodium nitroprusside). The microplate reader (Molecular Devices, USA) was used to measure the increase in absorbance at 650 nm after 50 min. A final volume of 245 μL was required to perform all reactions in a triplicate. The results (absorbance change per minute) were processed using SoftMax Pro software (Molecular Devices, USA). All assays were performed at pH 6.8. Inhibition percentages were calculated from the formula% Inhibition = 100 − (Abs(sample)/Abs(control)) × 100where “A” is the absorbance of the “test well” as well as the “control”. Thiourea was used as a standard."}, "B. subtilis": {"test_system": "B. subtilis", "experiment": "Antibacterial activity, agar well diffusion method", "format": "cell-based", "conditions": "Table S2; unit not given", "description": "as §1, §2"}, "S. aureus": {"test_system": "S. aureus", "experiment": "Antibacterial activity, agar well diffusion method", "format": "cell-based, Staphylococcus aureus", "conditions": "Table S2 and b89; unit not given"}, "[1]": {"test_system": "human HepG2 hepatic cancer cells", "experiment": "MTT cell viability assay", "format": "cell-based", "conditions": "HepG2, MTT, 48 hours, at 200 μg", "method": "The human liver cells were cultivated in Dulbecco's modified Eagle medium (DMEM) in which 100 U mL^−1 penicillin, 10% fetal bovine and […] streptomycin were added and kept at 37 °C in a […] carbon dioxide induced humidified environment. The human liver cells prepared as per above procedure were then treated with synthesized compounds diluted to 0.05% DMSO concentration.\nUsing MTT assay, the % viability of cancer cells 36 was evaluated. According to the standard procedure, HepG2 cells were treated with various dosages of synthesized compounds for 48 hours each. The cells were then incubated for 4 hours at 37 °C with 10μ MTT reagent (5 mg mL^−1). Next, in 150 μL DMSO was added to dissolve formazan crystals. The λmax was recorded at 409 nm in a microplate reader (thermos scientific)."}}, "note": "Where two headings read alike, the source gives them in different places."}
{"smiles": "O=c1cc(-c2ccc(O)c(O)c2)oc2cc(O)c([C@@H]3O[C@H](CO)[C@@H](O)[C@H](O)[C@H]3O)c(O)c12", "note": "[Compound 7, Luteolin-6-C-β-D-glucopyranoside]", "values": [{"measurement": "Antibacterial activity (MIC) against H.Pylori", "setting": "H.pylori", "result": 1.23}, {"measurement": "IC50", "setting": "Jack bean urease; pH 6.8, read-out: IC50 ± SEM, urease", "result": "1.22 ± 0.43", "unit": "µM"}, {"measurement": "% Inhibition of urease", "setting": "Jack bean urease; test compounds each 0.5 mM, pH 6.8", "result": 81.57, "unit": "%"}, {"measurement": "IC50", "setting": "Jack bean urease; unit inferred, read-out: IC50, urease (printed in Fig. 6)", "result": "1.22 ± 0.43", "unit": "µM"}, {"measurement": "Antibacterial activity against B. subtilis", "setting": "B. subtilis", "result": 0.12}, {"measurement": "Antibacterial activity (MIC) against S. aureus", "setting": "S. aureus", "result": 0.78}, {"measurement": "% Viability", "setting": "[1]", "result": "97.94 ± 3.53", "unit": "%"}]}
